Values of other authors as cited in patent publication US10675240B2 (priority 2014, dated 2020).

Settings: background statement

For CC1=CC[C@H]2C[C@@H]1C2(C)C [α-Pinene, (1S,5S)-2,6,6-Trimethylbicyclo[3.1.1]hept-2-ene], the human pulmonary uptake is given as 60%.
